Measured values reported in PubChem BioAssay AID1963968 (Molecular Pharmacology Branch, DTP, NCI, 2024).

Tested on: 945468-187-T-J3-PDC spheroids with HUVEC/MSC, viability
Experiment: Anticancer human tumor 945468-187-T-J3-PDC patient-derived rectal carcinoma cell line growth inhibition [PI3K]
Conditions: for IC50: curve of first compound; for viability, T/C: stronger effect = lower value
Text: Combinatorial screen of targeted agents with the PI3K inhibitors inavolisib, alpelisib, duvelisib, and copanlisib in multi-cell type tumor spheroids
A high-throughput screen of multi-cell type tumor spheroids was designed to identify active combinations of targeted small molecules and PI3K pathway inhibitors. Complex spheroids include a stromal component modeled by human endothelial cells (HUVEC) and fibroblasts modeled by human mesenchymal stem cells (MSCs). The concentration ranges selected for each drug and investigational agent were based upon clinically achievable concentrations if the clinical Cmax of the agent was known.
Compounds. The drugs and investigational agents: inavolisib (NSC800729), alpelisib (NSC765974), duvelisib (NSC772469), copanlisib (NSC816437), ipatasertib (NSC767898), afuresertib (NSC778305), talazoparib (NSC767125), sapanisertib (NSC764658), selumetinib (NSC741078), tovorafenib (DAY101, NSC766906), vemurafenib (NSC761431), ravoxertinib (NSC781343), sotorasib (NSC818433), MRTX1133 (NSC 836407), abemaciclib (NSC 768073), palbociclib (NSC758247), venetoclax (NSC 766270), SY5609 (NSC837396), enzalutamide (NSC755605), and darolutamide (NSC825331), were obtained from the National Cancer Institute (NCI) Developmental Therapeutics Program Chemical Repository. The FDA-approved anticancer drug set is available from the NCI Developmental Therapeutics Program. […] The stock solutions were prepared in dimethyl sulfoxide (DMSO, Sigma-Aldrich, St. Louis, MO, cat. D2650) at 800-fold the tested concentration and stored at -70 degrees C prior to their use. All drugs and investigational agents were tested over a range starting from a high concentration at or near the clinical Cmax and decreasing in half-log increments. If the clinical Cmax for an agent had not been determined, the highest concentration tested was 10 microM.
Cell Culture. All cells were maintained in an incubator at 37 degrees C and 5% CO2 with 95% humidity. The PDC lines were cultured according to standard operating procedures established by the NCI PDMR (https://pdmr.cancer.gov/sops/default.htm). All PDCs were thawed and cultured in Matrigel-coated flasks prepared with a working solution of 1X Ham's F-12 nutrient mix, without supplementation (Invitrogen, Waltham, MA, cat. 11765054), 100 U/mL penicillin-streptomycin (Invitrogen, cat. 15140122), and 2.5% Matrigel (Corning Inc., Corning, NY, cat. 354248) for the first three passages. The 354836-022-R-J1-PDC, 475296-252-R-J1-PDC, and 997726-040-R-J2-PDC lines were cultured in 6A media, which includes advanced DMEM/F-12 (Thermo Fisher Scientific, cat. 12634028), 10 mM HEPES (Thermo Fisher Scientific, cat. 15630080), 1X GlutaMAX supplement (Thermo Fisher Scientific, cat. 35050061), 0.1 mg/mL primocin (InvivoGen, San Diego, CA, cat. ant-pm-2), 10% defined fetal bovine serum, heat inactivated (HyClone Laboratories Inc., Logan, UT, cat. SH30070.03HI), 50% L-WRN conditioned media (ATCC, cat. CRL-3276), 1.25 mM N-Acetyl-L-cysteine (Sigma-Aldrich, cat. A9165), 10 mM nicotinamide (Sigma-Aldrich, cat. N0636), 1X B-27 supplement (Thermo Fisher Scientific, cat. 17504044), 1X N-2 supplement (Thermo Fisher Scientific, cat. 17502048), and 10 microM Y-27632 dihydrochloride (Tocris Bioscience, Bristol, United Kingdom, cat. 1254). The 624824-186-R-J2-PDC line was cultured in 6C/Colon 1B media, which includes all 6A media components plus 50 ng/mL human EGF recombinant protein (Thermo Fisher Scientific, cat. PHG0311). […]

[1] = second compound 0.00316 µM, first compound 0.0316 µM
[2] = second compound 0.00316 µM, first compound 0.1 µM
[3] = second compound 0.00316 µM, first compound 0.316 µM
[4] = second compound 0.00316 µM, first compound 1 µM
[5] = second compound 0.00316 µM, first compound 3.16 µM
[6] = second compound 0.00316 µM, first compound 10 µM
[7] = second compound 0.01 µM, first compound 0.0316 µM
[8] = second compound 0.01 µM, first compound 0.1 µM
[9] = second compound 0.01 µM, first compound 0.316 µM
[10] = second compound 0.01 µM, first compound 1 µM
[11] = second compound 0.01 µM, first compound 3.16 µM
[12] = second compound 0.01 µM, first compound 10 µM
[13] = second compound 0.0316 µM, first compound 0.0316 µM
[14] = second compound 0.0316 µM, first compound 0.1 µM
[15] = second compound 0.0316 µM, first compound 0.316 µM
[16] = second compound 0.0316 µM, first compound 1 µM
[17] = second compound 0.0316 µM, first compound 3.16 µM
[18] = second compound 0.0316 µM, first compound 10 µM
[19] = second compound 0.1 µM, first compound 0.0316 µM
[20] = second compound 0.1 µM, first compound 0.1 µM
[21] = second compound 0.1 µM, first compound 0.316 µM
[22] = second compound 0.1 µM, first compound 1 µM
[23] = second compound 0.1 µM, first compound 3.16 µM
[24] = second compound 0.1 µM, first compound 10 µM
[25] = second compound 0.316 µM, first compound 0.0316 µM
[26] = second compound 0.316 µM, first compound 0.1 µM
[27] = second compound 0.316 µM, first compound 0.316 µM
[28] = second compound 0.316 µM, first compound 1 µM
[29] = second compound 0.316 µM, first compound 3.16 µM
[30] = second compound 0.316 µM, first compound 10 µM
[31] = second compound 1 µM, first compound 0.0316 µM
[32] = second compound 1 µM, first compound 0.1 µM
[33] = second compound 1 µM, first compound 0.316 µM
[34] = second compound 1 µM, first compound 1 µM
[35] = second compound 1 µM, first compound 3.16 µM
[36] = second compound 1 µM, first compound 10 µM
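Also: spheroids exposed to agents for 7 days before viability read.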
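For viability, T/C in this document: 100% = DMSO vehicle control viability.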

Question: Which results are given for `CC(C)NCC(C(=O)N1CCN(c2ncnc3c2C(C)CC3O)CC1)c1ccc(Cl)cc1` (stereo unspecified) + CC(Nc1ccc2c(c1)OCCn1cc(N3C(=O)OCC3C(F)F)nc1-2)C(N)=O?
Answer: IC50 (second compound 0.00316 µM): 8.44 µM; IC50 (second compound 0.01 µM): > 10 µM; IC50 (second compound 0.0316 µM): 6.85 µM; IC50 (second compound 0.1 µM): 2.81 µM; IC50 (second compound 0.316 µM): 0.91 µM; IC50 (second compound 1 µM): 1.38 µM; viability, T/C [1]: 93.8%; viability, T/C [2]: 93.9%; viability, T/C [3]: 103%; viability, T/C [4]: 91.6%; viability, T/C [5]: 58.6%; viability, T/C [6]: 48.5%; viability, T/C [7]: 111%; viability, T/C [8]: 103%; viability, T/C [9]: 104%; viability, T/C [10]: 96.7%; viability, T/C [11]: 54.9%; viability, T/C [12]: 59.2%; viability, T/C [13]: 93.7%; viability, T/C [14]: 91.8%; viability, T/C [15]: 94.1%; viability, T/C [16]: 90.9%; viability, T/C [17]: 55.6%; viability, T/C [18]: 47.3%; viability, T/C [19]: 101%; viability, T/C [20]: 93.4%; viability, T/C [21]: 87%; viability, T/C [22]: 76.4%; viability, T/C [23]: 45%; viability, T/C [24]: 31.5%; viability, T/C [25]: 101%; viability, T/C [26]: 89.3%; viability, T/C [27]: 62.7%; viability, T/C [28]: 49.6%; viability, T/C [29]: 39%; viability, T/C [30]: 29.3%; viability, T/C [31]: 62.8%; viability, T/C [32]: 70.4%; viability, T/C [33]: 57.8%; viability, T/C [34]: 57.3%; viability, T/C [35]: 34.1%; viability, T/C [36]: 26.7%

Question: What does the source list for `CC1(C)CCC(CN2CCN(c3ccc(C(=O)NS(=O)(=O)c4ccc(NCC5CCOCC5)c([N+](=O)[O-])c4)c(Oc4cnc5[nH]ccc5c4)c3)CC2)=C(c2ccc(Cl)cc2)C1` + CC(Nc1ccc2c(c1)OCCn1cc(N3C(=O)OCC3C(F)F)nc1-2)C(N)=O?
Answer: IC50 (second compound 0.00316 µM): > 10 µM; IC50 (second compound 0.01 µM): > 10 µM; IC50 (second compound 0.0316 µM): > 10 µM; IC50 (second compound 0.1 µM): > 10 µM; IC50 (second compound 0.316 µM): > 10 µM; IC50 (second compound 1 µM): > 10 µM; viability, T/C [1]: 96.8%; viability, T/C [2]: 112%; viability, T/C [3]: 102%; viability, T/C [4]: 114%; viability, T/C [5]: 131%; viability, T/C [6]: 52.9%; viability, T/C [7]: 97.7%; viability, T/C [8]: 125%; viability, T/C [9]: 94%; viability, T/C [10]: 114%; viability, T/C [11]: 132%; viability, T/C [12]: 63.2%; viability, T/C [13]: 121%; viability, T/C [14]: 101%; viability, T/C [15]: 112%; viability, T/C [16]: 121%; viability, T/C [17]: 125%; viability, T/C [18]: 63.2%; viability, T/C [19]: 121%; viability, T/C [20]: 114%; viability, T/C [21]: 105%; viability, T/C [22]: 126%; viability, T/C [23]: 125%; viability, T/C [24]: 65.5%; viability, T/C [25]: 107%; viability, T/C [26]: 103%; viability, T/C [27]: 102%; viability, T/C [28]: 113%; viability, T/C [29]: 120%; viability, T/C [30]: 73.2%; viability, T/C [31]: 79.2%; viability, T/C [32]: 68%; viability, T/C [33]: 80%; viability, T/C [34]: 79.2%; viability, T/C [35]: 81.1%; viability, T/C [36]: 53.9%

Question: `C[C@@H](NC(=O)c1ncnc(N)c1Cl)c1ncc(C(=O)Nc2cc(C(F)(F)F)c(Cl)cn2)s1` + CC(Nc1ccc2c(c1)OCCn1cc(N3C(=O)OCC3C(F)F)nc1-2)C(N)=O was tested. Which IC50 (second compound 0.00316 µM) did it give?
Answer: > 10 µM

Question: What about the IC50 (second compound 0.01 µM) of the same compound?
Answer: > 10 µM

Question: And the IC50 (second compound 0.0316 µM)?
Answer: > 10 µM

Question: And the IC50 (second compound 0.1 µM)?
Answer: > 10 µM

Question: And the IC50 (second compound 0.316 µM)?
Answer: > 10 µM

Question: And the IC50 (second compound 1 µM)?
Answer: > 10 µM

Question: What about the viability, T/C [1] of the same compound?
Answer: 97.2%

Question: What about the viability, T/C [2] of the same compound?
Answer: 97.5%

Question: What about the viability, T/C [3] of the same compound?
Answer: 116%

Question: And the viability, T/C [4]?
Answer: 91.5%

Question: And the viability, T/C [5]?
Answer: 111%

Question: What about the viability, T/C [6] of the same compound?
Answer: 92%

Question: What about the viability, T/C [7] of the same compound?
Answer: 94.7%

Question: What about the viability, T/C [8] of the same compound?
Answer: 110%

Question: And the viability, T/C [9]?
Answer: 101%

Question: What about the viability, T/C [10] of the same compound?
Answer: 88.4%

Question: And the viability, T/C [11]?
Answer: 90.8%

Question: What about the viability, T/C [12] of the same compound?
Answer: 98.4%

Question: What about the viability, T/C [13] of the same compound?
Answer: 94.4%

Question: What about the viability, T/C [14] of the same compound?
Answer: 89.3%

Question: And the viability, T/C [15]?
Answer: 94.4%

Question: What about the viability, T/C [16] of the same compound?
Answer: 95.1%

Question: And the viability, T/C [17]?
Answer: 103%

Question: What about the viability, T/C [18] of the same compound?
Answer: 94.3%

Question: And the viability, T/C [19]?
Answer: 91.2%

Question: What about the viability, T/C [20] of the same compound?
Answer: 102%

Question: And the viability, T/C [21]?
Answer: 101%

Question: And the viability, T/C [22]?
Answer: 100%

Question: What about the viability, T/C [23] of the same compound?
Answer: 96.7%

Question: What about the viability, T/C [24] of the same compound?
Answer: 95.8%

Question: What about the viability, T/C [25] of the same compound?
Answer: 109%

Question: And the viability, T/C [26]?
Answer: 112%

Question: And the viability, T/C [27]?
Answer: 92.7%

Question: And the viability, T/C [28]?
Answer: 92.7%

Question: And the viability, T/C [29]?
Answer: 88.8%

Question: And the viability, T/C [30]?
Answer: 96.3%

Question: And the viability, T/C [31]?
Answer: 67.5%

Question: What about the viability, T/C [32] of the same compound?
Answer: 56.1%

Question: And the viability, T/C [33]?
Answer: 63.7%

Question: And the viability, T/C [34]?
Answer: 56.8%

Question: And the viability, T/C [35]?
Answer: 65.1%

Question: What about the viability, T/C [36] of the same compound?
Answer: 62.4%
